Columns and labels:
Assay in all cases: Eurofins kinase profiling
Assay type in all cases: biochemical
[1] = molecular target: T1, PI3 Kinase (p110a/p85a)(h) (Homo sapiens, UniProt P42336); conditions: read-out: residual kinase activity PI3 Kinase (p110a/p85a)(h)
T1 construct: purchased Eurofins KinaseProfiler
In short: (§1)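 Single-point screen at 1 µM compound; radiometric read-out of kinase activity using radiolabeled phosphate, per standard KinaseProfiler protocol.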

B-Raf(h) = molecular target: T2, B-Raf(h) (Homo sapiens, UniProt P15056); conditions: read-out: residual kinase activity B-Raf(h)
T2 construct: purchased Eurofins KinaseProfiler
T2 sequence (P15056 whole entry): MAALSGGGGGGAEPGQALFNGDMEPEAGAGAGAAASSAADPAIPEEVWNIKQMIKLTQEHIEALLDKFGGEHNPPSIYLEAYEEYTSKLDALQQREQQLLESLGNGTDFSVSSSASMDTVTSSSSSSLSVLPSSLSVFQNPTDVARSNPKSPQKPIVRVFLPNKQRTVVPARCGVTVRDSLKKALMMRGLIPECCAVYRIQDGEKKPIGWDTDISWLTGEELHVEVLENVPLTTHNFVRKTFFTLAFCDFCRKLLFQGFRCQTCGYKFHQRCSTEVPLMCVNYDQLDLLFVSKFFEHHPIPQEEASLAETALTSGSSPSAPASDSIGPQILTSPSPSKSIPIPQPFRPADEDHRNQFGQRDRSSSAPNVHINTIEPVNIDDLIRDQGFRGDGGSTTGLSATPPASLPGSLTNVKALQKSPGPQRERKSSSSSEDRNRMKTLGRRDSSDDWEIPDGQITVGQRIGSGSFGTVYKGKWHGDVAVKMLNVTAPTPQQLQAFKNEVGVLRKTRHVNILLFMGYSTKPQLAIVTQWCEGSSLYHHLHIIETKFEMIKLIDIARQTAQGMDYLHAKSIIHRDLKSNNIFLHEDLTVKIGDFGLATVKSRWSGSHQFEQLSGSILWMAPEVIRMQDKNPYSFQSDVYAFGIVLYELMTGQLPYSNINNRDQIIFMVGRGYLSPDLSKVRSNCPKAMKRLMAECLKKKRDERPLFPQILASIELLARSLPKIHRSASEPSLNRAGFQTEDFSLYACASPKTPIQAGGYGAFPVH
In short: as §1

LKB1(h) = molecular target: T3, LKB1(h) (Homo sapiens, UniProt Q15831); conditions: read-out: residual kinase activity LKB1(h)
T3 construct: purchased Eurofins KinaseProfiler
T3 sequence (Q15831 1-433): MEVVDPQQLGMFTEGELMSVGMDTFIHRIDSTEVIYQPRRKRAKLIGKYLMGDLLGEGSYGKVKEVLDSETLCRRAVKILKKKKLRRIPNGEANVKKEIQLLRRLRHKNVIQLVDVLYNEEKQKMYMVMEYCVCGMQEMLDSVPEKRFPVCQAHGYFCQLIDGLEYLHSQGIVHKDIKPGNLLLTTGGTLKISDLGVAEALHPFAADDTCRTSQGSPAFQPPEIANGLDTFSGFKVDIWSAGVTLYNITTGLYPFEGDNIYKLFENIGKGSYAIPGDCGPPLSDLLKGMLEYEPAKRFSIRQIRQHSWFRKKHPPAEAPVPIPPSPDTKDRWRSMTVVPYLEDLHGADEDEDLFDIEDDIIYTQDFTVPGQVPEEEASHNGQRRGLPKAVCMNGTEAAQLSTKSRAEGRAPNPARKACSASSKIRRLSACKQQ
T3 sequence (Q7RTN6 1-431 partner): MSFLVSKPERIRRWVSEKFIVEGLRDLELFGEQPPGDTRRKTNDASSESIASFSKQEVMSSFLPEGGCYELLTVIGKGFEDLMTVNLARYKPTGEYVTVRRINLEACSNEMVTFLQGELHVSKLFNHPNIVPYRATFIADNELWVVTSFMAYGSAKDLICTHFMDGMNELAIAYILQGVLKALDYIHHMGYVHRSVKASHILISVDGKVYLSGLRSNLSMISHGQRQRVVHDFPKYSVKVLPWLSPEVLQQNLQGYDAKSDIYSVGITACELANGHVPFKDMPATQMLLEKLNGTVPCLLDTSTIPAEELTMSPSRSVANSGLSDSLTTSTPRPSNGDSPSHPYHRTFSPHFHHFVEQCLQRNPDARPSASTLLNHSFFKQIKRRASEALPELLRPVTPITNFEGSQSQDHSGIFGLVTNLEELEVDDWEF
T3 sequence (Q9Y376 1-341 partner): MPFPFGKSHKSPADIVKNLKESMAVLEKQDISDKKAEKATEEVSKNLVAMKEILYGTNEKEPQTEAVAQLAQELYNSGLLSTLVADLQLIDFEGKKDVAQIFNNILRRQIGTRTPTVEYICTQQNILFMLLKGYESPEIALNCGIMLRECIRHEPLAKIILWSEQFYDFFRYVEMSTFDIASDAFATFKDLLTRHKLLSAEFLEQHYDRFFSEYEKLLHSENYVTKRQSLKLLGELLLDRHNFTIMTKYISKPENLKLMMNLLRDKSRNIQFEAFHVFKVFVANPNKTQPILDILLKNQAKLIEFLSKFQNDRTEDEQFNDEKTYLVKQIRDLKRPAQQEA
In short: as §1

[2] = molecular target: T4, PI3 Kinase (p110b/p85a)(h) (Homo sapiens, UniProt P42338); conditions: read-out: residual kinase activity PI3 Kinase (p110b/p85a)(h)
T4 construct: purchased Eurofins KinaseProfiler
In short: as §1

FAK(h) = molecular target: T5, FAK(h) (Homo sapiens, UniProt Q05397); conditions: read-out: residual kinase activity FAK(h)
T5 construct: purchased Eurofins KinaseProfiler
T5 sequence (Q05397 whole entry): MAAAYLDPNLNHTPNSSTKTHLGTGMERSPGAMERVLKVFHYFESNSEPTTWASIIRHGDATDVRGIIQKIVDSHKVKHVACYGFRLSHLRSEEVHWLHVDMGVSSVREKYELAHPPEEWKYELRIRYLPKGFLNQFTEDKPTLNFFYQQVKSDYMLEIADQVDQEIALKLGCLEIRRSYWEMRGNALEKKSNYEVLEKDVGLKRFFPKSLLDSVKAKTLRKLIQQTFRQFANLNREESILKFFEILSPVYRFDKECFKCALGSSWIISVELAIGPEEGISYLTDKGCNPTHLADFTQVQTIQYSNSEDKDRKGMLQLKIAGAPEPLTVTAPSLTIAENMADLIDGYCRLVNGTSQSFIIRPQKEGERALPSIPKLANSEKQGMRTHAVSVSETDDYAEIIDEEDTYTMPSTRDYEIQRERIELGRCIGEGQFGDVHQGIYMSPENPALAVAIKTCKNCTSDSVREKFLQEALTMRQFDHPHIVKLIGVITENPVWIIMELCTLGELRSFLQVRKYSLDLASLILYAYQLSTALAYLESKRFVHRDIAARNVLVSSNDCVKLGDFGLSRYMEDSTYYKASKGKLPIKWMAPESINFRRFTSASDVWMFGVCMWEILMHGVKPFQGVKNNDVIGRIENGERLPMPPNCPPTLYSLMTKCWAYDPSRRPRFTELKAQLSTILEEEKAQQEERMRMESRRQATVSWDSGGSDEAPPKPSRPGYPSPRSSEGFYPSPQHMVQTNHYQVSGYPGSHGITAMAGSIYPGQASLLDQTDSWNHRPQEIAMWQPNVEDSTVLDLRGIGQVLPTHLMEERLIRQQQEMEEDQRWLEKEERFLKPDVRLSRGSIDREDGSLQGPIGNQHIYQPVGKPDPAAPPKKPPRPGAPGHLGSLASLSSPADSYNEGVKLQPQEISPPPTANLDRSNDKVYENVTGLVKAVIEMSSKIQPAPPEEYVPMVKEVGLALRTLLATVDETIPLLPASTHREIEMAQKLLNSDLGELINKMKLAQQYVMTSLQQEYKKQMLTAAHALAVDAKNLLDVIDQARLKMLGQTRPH
In short: as §1

EphA2(h) = molecular target: T6, EphA2(h) (Homo sapiens, UniProt P29317); conditions: read-out: residual kinase activity EphA2(h)
T6 construct: purchased Eurofins KinaseProfiler
In short: as §1

cKit(V560G)(h) = molecular target: T7, cKit(V560G)(h) (Homo sapiens, UniProt P10721, V560G); conditions: read-out: residual kinase activity cKit(V560G)(h)
T7 construct: purchased Eurofins KinaseProfiler
In short: as §1

DCAMKL3(h) = molecular target: T8, DCAMKL3(h) (Homo sapiens, UniProt Q9C098); conditions: read-out: residual kinase activity DCAMKL3(h)
T8 construct: purchased Eurofins KinaseProfiler
T8 sequence (Q9C098 1-648): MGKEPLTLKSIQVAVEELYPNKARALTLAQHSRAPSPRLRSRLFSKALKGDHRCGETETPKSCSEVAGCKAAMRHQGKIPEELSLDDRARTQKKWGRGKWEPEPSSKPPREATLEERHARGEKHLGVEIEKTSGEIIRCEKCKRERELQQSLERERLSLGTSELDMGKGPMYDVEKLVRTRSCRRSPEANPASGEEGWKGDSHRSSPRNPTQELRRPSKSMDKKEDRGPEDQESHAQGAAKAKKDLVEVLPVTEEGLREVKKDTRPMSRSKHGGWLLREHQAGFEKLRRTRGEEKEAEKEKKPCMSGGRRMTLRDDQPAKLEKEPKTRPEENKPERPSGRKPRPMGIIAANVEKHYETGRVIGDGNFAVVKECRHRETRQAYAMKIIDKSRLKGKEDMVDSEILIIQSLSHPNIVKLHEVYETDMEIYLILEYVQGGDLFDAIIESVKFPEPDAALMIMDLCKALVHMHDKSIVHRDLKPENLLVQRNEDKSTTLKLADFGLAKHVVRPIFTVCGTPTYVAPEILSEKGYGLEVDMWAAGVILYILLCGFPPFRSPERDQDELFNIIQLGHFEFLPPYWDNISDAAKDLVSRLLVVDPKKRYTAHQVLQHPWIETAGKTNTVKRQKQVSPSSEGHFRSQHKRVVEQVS
In short: as §1

Ron(h) = molecular target: T9, Ron(h) (Homo sapiens, UniProt Q04912); conditions: read-out: residual kinase activity Ron(h)
T9 construct: purchased Eurofins KinaseProfiler
In short: as §1

EGFR(T790M)(h) = molecular target: T10, EGFR(T790M)(h) (Homo sapiens, UniProt P00533, T790M); conditions: read-out: residual kinase activity EGFR(T790M)(h)
T10 construct: purchased Eurofins KinaseProfiler
In short: as §1

IGF-1R(h) = molecular target: T11, IGF-1R(h) (Homo sapiens, UniProt P08069); conditions: read-out: residual kinase activity IGF-1R(h)
T11 construct: purchased Eurofins KinaseProfiler
T11 sequence (P08069 31-1367): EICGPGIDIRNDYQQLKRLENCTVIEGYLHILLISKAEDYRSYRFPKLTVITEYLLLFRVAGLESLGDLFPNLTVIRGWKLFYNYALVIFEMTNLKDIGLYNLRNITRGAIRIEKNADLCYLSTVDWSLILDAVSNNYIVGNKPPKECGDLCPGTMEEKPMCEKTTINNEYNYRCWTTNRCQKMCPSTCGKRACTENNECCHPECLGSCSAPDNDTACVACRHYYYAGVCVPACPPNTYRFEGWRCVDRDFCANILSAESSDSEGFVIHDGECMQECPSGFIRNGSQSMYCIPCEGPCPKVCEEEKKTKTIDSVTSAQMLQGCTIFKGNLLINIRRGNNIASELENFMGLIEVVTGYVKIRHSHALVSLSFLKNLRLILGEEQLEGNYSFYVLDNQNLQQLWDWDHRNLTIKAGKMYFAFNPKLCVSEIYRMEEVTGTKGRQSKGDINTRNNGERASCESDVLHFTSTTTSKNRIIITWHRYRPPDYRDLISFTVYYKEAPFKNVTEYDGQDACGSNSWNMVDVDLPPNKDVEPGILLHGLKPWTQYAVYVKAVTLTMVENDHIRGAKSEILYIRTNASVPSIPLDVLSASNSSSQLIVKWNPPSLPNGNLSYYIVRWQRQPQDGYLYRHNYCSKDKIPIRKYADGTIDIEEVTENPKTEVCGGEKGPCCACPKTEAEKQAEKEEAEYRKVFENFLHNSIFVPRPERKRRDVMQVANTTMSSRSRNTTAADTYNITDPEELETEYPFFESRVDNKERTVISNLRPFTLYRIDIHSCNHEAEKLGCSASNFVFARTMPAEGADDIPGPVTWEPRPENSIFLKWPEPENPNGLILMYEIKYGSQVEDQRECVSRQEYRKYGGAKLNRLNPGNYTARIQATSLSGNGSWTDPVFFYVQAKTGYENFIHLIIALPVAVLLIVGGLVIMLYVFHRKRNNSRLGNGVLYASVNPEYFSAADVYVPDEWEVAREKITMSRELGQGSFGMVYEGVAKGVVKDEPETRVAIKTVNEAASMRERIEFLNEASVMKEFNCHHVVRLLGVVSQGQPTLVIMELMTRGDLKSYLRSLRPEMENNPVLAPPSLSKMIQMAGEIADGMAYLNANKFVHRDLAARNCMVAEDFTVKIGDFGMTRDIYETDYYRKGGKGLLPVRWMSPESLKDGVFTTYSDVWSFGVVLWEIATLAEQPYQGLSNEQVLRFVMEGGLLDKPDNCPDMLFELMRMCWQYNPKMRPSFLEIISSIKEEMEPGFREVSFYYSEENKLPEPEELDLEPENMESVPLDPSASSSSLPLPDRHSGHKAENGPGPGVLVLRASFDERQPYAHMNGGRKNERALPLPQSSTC
In short: as §1

T1 sequence (P42336 whole entry): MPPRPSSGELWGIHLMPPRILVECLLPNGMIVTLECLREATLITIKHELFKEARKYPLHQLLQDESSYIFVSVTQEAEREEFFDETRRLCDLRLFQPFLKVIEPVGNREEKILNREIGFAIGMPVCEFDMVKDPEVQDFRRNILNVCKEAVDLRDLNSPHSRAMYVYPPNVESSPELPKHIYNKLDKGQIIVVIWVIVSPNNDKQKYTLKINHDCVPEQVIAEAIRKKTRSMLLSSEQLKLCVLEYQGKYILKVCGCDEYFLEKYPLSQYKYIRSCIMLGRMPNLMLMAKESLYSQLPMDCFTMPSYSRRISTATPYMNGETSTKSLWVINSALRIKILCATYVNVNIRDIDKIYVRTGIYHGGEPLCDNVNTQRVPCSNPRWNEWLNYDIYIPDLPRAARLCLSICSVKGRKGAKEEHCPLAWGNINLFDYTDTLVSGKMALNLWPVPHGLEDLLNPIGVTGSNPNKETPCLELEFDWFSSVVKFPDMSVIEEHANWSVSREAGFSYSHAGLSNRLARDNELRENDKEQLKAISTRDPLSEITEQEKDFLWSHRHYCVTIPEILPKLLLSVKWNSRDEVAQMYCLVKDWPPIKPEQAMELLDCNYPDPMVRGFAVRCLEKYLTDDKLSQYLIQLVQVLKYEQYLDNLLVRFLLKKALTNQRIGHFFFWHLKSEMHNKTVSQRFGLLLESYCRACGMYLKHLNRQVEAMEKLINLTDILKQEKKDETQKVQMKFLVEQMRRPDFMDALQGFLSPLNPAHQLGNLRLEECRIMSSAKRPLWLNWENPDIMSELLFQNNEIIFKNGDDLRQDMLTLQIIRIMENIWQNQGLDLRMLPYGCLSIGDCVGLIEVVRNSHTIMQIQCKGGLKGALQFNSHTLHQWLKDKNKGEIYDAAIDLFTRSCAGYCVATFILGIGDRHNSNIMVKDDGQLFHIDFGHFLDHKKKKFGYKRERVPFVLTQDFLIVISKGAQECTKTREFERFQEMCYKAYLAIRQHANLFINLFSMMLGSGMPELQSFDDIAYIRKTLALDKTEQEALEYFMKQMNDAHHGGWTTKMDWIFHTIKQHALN
T1 sequence (P27986 whole entry partner): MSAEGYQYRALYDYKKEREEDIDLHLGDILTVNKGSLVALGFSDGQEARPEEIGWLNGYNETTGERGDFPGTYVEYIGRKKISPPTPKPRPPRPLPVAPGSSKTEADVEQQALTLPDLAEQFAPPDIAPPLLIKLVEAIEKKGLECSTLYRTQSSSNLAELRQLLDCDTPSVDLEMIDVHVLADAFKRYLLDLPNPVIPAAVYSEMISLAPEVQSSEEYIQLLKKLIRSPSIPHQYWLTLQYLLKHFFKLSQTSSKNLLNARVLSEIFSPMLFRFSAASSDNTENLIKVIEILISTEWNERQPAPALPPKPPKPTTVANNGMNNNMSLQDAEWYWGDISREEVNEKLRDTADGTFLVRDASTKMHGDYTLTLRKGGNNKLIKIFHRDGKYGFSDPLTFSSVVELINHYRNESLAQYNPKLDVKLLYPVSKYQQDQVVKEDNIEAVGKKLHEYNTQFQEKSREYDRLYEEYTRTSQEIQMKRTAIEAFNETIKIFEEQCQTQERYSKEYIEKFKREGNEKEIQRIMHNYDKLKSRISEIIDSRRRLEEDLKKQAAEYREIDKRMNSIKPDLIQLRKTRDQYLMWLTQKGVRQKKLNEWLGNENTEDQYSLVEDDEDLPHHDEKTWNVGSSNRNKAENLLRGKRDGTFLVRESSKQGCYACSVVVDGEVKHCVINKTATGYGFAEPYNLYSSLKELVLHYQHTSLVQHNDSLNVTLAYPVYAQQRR

SMILES | remaining activity at 1 µM [1] [%] | remaining activity at 1 µM (B-Raf(h)) [%] | remaining activity at 1 µM (LKB1(h)) [%] | remaining activity at 1 µM [2] [%] | remaining activity at 1 µM (FAK(h)) [%] | remaining activity at 1 µM (EphA2(h)) [%] | remaining activity at 1 µM (cKit(V560G)(h)) [%] | remaining activity at 1 µM (DCAMKL3(h)) [%] | remaining activity at 1 µM (Ron(h)) [%] | remaining activity at 1 µM (EGFR(T790M)(h)) [%] | remaining activity at 1 µM (IGF-1R(h)) [%]
CONC(=O)c1ccccc1Nc1cc(Nc2cc(C)nn2C(C)C)ncc1Cl [GSK2256098] | 83 | 99 | 98 | 105 | -1 | 92 | 104 | 98 | 91 | 106 | 115
CNC(=O)c1cccc(C)c1Nc1nc(Nc2ccc(N3CCN(C4C5CC6CC4CC(O)(C6)C5)CC3)cc2OC)ncc1C(F)(F)F (stereo not drawn) [SJP1602, 2-((2-((4-(4-((2s,5r)-5-hydroxyadamantan-2-yl)piperazin-1-yl)-2-methoxyphenyl)amino)-5-(trifluoromethyl)pyrimidin-4-yl)amino)-N,3-dimethylbenzamide] | 104 | 93 | 96 | 100 | 3 | 105 | 136 | 98 | 75 | 119 | 116
CNC(=O)c1ccc(Nc2ncc(C(F)(F)F)c(NCc3nccnc3N(C)S(C)(=O)=O)n2)cc1 [VS-6063, Defactinib] | 103 | 83 | 89 | 103 | -6 | 91 | 74 | 42 | 72 | 82 | 55
